Drawing on US20220370440A1 (Lead Discovery Center GmbH, priority 2018, published 2022), this text covers GI50 and IC50 for 13 compounds.

pIC50: −log10 of the molar value. Like-named read-outs stand apart in the source and are kept apart here. Some results are limits rather than exact numbers.

What is called pIC50 is the IC50 on a negative log10 scale, so that one unit is a factor of ten.

The target in assay [1] is Her2 Exon 20 INSYVMA Ba/F3 (Homo sapiens, UniProt P04626, DUP772-775, cells depend on it). In words: Her2 Exon 20 INSYVMA Ba/F3 CellTiter-Glo. Format: cell-based. Conditions: 72 h, read-out: Her2 Exon 20 INSYVMA Ba/F3 CTG IC50. As to the method: (§1) 2. Measurement of Cellular Activity
Her2 Exon 20 INSYVMA Ba/F3, sequence (P04626 with tags, fused parts or gaps DUP772-775): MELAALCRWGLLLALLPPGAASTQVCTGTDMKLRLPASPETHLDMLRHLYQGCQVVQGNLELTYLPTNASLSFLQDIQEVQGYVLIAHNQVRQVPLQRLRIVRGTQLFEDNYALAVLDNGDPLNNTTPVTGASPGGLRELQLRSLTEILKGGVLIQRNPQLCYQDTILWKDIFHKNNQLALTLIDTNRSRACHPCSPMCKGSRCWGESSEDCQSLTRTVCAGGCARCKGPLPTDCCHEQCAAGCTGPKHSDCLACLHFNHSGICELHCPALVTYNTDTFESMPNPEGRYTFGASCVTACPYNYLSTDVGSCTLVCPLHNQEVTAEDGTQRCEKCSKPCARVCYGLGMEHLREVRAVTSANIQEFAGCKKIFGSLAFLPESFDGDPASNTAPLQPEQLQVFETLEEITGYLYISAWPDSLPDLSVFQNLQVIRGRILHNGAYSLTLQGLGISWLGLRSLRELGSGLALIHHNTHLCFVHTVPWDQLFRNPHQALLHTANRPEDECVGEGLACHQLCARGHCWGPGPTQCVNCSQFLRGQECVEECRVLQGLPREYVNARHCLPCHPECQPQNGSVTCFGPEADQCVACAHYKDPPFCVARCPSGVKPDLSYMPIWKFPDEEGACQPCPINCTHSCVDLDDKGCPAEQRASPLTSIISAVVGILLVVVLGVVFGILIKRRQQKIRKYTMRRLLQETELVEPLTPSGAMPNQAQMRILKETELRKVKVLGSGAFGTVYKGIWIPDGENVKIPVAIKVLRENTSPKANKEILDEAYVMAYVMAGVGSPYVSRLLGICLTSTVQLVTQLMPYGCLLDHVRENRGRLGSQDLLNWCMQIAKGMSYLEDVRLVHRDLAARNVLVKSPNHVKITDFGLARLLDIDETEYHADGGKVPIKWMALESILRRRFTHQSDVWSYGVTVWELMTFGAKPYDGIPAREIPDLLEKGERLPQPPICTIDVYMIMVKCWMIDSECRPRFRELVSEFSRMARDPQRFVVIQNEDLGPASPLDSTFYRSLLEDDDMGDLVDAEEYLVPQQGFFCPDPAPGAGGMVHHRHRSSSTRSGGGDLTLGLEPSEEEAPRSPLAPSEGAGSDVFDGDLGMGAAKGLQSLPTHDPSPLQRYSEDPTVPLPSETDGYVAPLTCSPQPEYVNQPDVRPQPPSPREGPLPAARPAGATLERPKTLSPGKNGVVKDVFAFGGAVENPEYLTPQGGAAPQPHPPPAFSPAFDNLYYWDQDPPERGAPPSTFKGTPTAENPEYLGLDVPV
(§2) The CellTiter-Glo Luminescent Cell Viability Assay (Promega) is a homogeneous method of determining the number of viable cells in culture. It is based on quantification of ATP, indicating the presence of metabolically active cells. Cells are seeded on day 1 at cell numbers that assure assay linearity and optimal signal intensity. After incubation for 24 h in humidified chambers at 37° C. and 5% CO2, compounds in DMSO are added at different concentrations. Cells are further incubated for 72 h at 37° C. and 5% CO2. Cells treated with the compound vehicle DMSO are used as positive controls and cells treated with 10 μM Staurosporine serve as negative controls. At day 5 the CellTiter Glo Reagent is prepared according to the instructions of the kit (Promega Inc.): Reagent is mixed 1:1 with cell culture medium. Thereon, mixture and assay plates are equilibrated at room temperature for 20 min. Equal volumes of the reagent-medium-mixture is added to the volume of culture medium present in each well. The plates are mixed at ˜200 rpm for 2 minutes on an orbital shaker. The microplates are then incubated at room temperature for 10 minutes for stabilization of the luminescent signal. Following incubation the luminescence is recorded on a Victor microplate reader (Perkin Elmer) using a 200 ms integration time. The data is then analyzed with Excel using the XLFIT Plugin (dose response Fit 205) for IC50-determination. As quality control the Z′-factor is calculated from 16 positive and negative control values. Only assay results showing a Z′-factor ≥0.5 are used for further analysis.
(§3) Inhibition is indicated as IC50 [nM] (“−”=not measured). Compounds having an activity designated as “A” provided an IC50≤100 nM; compounds having an activity designated as “B” provided an 100 nM<IC50≤500 nM; compounds having an activity designated as “C” provided an 500 nM<IC50≤1000 nM; compounds having an activity designated as “D” provided an 1000 nM<IC50≤10000 nM; and compounds having an activity designated as “E” provided an IC50>10000 nM.
(In general: ATP-based viability assays read luminescence as a measure of living cells.)

In assay [2] the target is EGFR T790ML858R (Homo sapiens, UniProt P00533, L858R/T790M). In words: EGFR T790ML858R Lance assay. Format: biochemical. The procedure:
(§4) Inhibition is indicated as […] [nM] (“−”=not measured). Compounds having an activity designated as “A” provided an IC50≤100 nM; compounds having an activity designated as “B” provided an 100 nM<IC50≤500 nM; compounds having an activity designated as “C” provided an 500 nM<IC50≤1000 nM; compounds having an activity designated as “D” provided an 1000 nM<IC50≤100000 nM; and compounds having an activity designated as “E” provided an IC50>10000 nM.

In assay [3] the target is T1, HER2 INS YVMA (Homo sapiens, UniProt P04626, INS775YVMA).
T1 construct: purchased DPF
T1 sequence (P04626 with tags, fused parts or gaps INS775YVMA): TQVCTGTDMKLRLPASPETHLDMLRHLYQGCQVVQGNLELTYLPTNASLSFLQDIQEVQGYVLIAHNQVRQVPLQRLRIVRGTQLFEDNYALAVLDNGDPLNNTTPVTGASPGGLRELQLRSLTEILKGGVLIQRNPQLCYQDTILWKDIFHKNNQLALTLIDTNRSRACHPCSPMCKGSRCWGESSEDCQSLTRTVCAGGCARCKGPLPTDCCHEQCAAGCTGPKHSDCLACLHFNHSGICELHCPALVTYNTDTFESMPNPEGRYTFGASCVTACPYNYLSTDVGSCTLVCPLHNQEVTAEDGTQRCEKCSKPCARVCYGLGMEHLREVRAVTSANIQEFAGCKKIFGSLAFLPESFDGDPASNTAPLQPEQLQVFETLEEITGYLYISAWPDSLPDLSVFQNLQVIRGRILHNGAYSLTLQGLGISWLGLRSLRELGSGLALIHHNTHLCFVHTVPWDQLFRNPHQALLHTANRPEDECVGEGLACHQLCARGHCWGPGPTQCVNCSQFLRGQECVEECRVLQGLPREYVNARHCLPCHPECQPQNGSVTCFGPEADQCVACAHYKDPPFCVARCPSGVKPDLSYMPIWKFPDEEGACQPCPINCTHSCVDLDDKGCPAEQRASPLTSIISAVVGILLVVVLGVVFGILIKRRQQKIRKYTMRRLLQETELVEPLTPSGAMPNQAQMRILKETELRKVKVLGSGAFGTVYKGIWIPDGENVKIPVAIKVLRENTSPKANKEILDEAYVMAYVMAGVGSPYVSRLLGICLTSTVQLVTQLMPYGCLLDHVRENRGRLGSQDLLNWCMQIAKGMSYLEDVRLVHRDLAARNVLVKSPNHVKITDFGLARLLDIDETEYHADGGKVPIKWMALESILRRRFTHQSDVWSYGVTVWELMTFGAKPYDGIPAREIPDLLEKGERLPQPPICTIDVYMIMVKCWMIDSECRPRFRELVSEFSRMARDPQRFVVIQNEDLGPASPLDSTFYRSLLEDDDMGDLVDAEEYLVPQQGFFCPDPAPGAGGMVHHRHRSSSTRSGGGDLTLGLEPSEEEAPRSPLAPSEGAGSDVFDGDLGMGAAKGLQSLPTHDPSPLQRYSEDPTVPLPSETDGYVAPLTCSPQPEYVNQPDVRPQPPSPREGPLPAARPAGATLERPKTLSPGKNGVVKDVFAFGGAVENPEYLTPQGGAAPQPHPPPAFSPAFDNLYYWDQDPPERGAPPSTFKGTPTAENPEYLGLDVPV
In words: Lance Kinase Activity Assay, HER2 INS YVMA (Her2 Exon 20 INSYVMA Lance). Format: biochemical. The procedure: 1. Measurement of HER2 INS YVMA Kinase Activity
This protocol describes how the Lance Kinase Activity Assay was performed to determine IC50 values of compounds of general formula (I) against HER2 INS YVMA. The principle behind this enzymatic assay is based upon the phosphorylation of the Ulight-peptide substrate. It is detected by using a specific EU-labeled anti-phospho peptide antibody. The binding of the Eu labeled anti-phospho peptide antibody to the phosphorylated ULight labeled peptide gives rise to a FRET-signal.
Binding of an inhibitor to the kinase prevents phosphorylation of the Ulight-substrate, resulting in a loss of FRET. In table 2 is summarized the relevant information for the LANCE assay.
The compounds of general formula (I) summarized in Table 3 were serial diluted from a 10 mM DMSO stock solution 1:3 over 8 steps in a total volume of 20 μl.
For every sample, 8 μl of kinase-substrate mix was transferred into a suitable assay plate (e.g. Corning #3673). Compound was added via pintool transfer (10 nl/well) using a Biomek FX robot (BeckmanCoulter). Reaction was started by addition of 2 μl ATP working solution and mixed using variomag teleshaker (Thermo Fischer Scientific). After 1 h incubation at room temperature the reaction was stopped with 10 μl detection mix containing the Eu-labeled phosphospecific antibody and 10 mM EDTA. After a second incubation period of 1 h at room temperature the FRET signal was measured at 340 nm excitation, 665 nm and 615 nm emission (for the ULight-substrate and Eu-AB, respectively) with an Envision spectrophotometer (Perkin Elmer, Waltham, Mass., USA) with 50 μs delay and 300 μs integration time. IC50 values were determined from the sigmoidal dose response curves with the software Quattro Workflow (Quattro GmbH, Munich, Germany).

Assay [4] addresses EGFR wt (Homo sapiens, UniProt P00533). Description: EGFR wt Lance assay. Format: biochemical. The procedure: as §4
In assay [5] the test system is H1975. In words: H1975 CellTiter-Glo. Format: cell-based. As to conditions: Homo sapiens, NCI-H1975; 72 h compound incubation; read-out: H1975 CTG IC50. The procedure:
as §1, §2, §4

Assay [6] addresses EGFR Exon 20 INSNPH Ba/F3 (Homo sapiens, UniProt P00533, DUP771-773, cells depend on it). Description: EGFR Exon 20 INSNPH Ba/F3 CellTiter-Glo. Format: cell-based. Conditions: 72 h, read-out: EGFR Exon 20 INSNPH Ba/F3 CTG IC50. As to the method:
as §1, §2, §3

EGFR Exon 20 INSNPH Ba/F3, sequence (P00533 with tags, fused parts or gaps DUP771-773): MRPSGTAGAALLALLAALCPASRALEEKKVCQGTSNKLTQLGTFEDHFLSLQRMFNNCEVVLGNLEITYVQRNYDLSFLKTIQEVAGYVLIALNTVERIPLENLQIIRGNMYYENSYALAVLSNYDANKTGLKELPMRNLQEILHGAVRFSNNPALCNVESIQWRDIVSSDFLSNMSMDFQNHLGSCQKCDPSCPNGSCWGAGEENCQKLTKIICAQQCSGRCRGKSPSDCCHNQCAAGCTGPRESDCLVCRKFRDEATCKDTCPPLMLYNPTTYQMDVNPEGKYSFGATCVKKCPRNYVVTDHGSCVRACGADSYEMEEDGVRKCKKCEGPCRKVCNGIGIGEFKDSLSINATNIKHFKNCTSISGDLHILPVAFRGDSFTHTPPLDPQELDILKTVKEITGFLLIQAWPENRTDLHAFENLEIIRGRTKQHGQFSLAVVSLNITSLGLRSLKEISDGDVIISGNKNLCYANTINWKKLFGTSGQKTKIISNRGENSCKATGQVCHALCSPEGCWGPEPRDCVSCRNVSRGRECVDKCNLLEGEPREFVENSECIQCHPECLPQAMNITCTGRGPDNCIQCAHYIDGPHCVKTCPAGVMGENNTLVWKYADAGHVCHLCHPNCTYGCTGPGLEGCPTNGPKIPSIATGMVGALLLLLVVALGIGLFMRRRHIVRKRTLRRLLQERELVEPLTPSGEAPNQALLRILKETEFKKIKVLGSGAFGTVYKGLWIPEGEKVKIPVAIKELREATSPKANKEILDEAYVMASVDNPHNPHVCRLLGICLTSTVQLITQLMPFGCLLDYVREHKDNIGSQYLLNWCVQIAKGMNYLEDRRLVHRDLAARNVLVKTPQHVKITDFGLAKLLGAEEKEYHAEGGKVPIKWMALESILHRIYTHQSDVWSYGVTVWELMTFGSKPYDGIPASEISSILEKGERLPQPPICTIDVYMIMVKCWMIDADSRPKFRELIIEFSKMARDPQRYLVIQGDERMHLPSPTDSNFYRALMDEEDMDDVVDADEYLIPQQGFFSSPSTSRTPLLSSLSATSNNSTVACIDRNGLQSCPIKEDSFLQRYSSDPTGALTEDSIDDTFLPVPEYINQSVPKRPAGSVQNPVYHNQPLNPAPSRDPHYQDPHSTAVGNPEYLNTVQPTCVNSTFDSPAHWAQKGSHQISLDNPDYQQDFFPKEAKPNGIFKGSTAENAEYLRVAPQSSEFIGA
EGFR T790ML858R, sequence (P00533 25-1210 T790M/L858R): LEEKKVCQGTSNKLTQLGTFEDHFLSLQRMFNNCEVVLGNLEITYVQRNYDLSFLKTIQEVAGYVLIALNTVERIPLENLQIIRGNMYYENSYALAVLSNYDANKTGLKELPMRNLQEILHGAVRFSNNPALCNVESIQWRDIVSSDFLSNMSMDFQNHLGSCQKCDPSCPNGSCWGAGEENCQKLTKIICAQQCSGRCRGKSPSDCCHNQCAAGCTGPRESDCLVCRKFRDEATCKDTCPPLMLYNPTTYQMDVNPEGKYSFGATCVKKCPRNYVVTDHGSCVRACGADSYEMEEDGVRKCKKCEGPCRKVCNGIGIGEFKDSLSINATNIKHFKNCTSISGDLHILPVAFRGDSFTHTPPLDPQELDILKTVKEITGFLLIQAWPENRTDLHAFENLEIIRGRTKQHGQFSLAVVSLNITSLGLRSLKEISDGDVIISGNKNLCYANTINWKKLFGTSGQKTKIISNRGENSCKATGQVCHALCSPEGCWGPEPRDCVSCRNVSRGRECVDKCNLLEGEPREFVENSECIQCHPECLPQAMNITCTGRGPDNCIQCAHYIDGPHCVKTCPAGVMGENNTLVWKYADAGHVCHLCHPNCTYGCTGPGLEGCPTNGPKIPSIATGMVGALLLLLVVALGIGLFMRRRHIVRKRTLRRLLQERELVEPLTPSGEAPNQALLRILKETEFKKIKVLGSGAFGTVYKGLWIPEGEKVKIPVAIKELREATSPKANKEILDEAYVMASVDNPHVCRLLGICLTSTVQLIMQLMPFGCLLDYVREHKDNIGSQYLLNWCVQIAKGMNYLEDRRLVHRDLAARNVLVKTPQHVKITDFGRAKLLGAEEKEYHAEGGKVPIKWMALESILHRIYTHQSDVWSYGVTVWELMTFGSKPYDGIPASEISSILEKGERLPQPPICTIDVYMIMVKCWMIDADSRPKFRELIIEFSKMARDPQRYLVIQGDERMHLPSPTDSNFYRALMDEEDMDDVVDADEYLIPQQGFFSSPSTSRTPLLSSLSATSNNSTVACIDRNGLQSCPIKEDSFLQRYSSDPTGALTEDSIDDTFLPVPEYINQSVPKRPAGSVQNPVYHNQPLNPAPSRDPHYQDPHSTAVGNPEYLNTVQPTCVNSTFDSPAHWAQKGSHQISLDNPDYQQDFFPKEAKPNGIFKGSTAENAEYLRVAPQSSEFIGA

Take `C=CC(=O)Nc1cc(-c2c(-c3cccc(C(=O)NC4CCCCC4)c3)[nH]c3nccc(Cl)c23)ccc1C` [Example 50, 3-(3-(3-acrylamido-4-methylphenyl)-4-chloro-1H-pyrrolo[2,3-b]pyridin-2-yl)-N-cyclohexylbenzamide]: the GI50 in assay [1] (CellTiter-Glo) and in assay [6] (CellTiter-Glo) was 1000 to 10000 nM in each case. Besides, the negative logarithm of the IC50 (pIC50) was 6.30 to 7.00 in assay [2], below 5.00 in assay [3] (biochemical Lance assay), 4.00 to 6.00 in assay [4] and 6.00 to 6.30 in assay [5].
`C=CC(=O)Nc1cc(-c2c(-c3cccc(C(=O)N4CCC5(CC4)CN(C)C5)c3)[nH]c3nccc(Cl)c23)ccc1C` [Example 53, N-(5-(4-chloro-2-(3-(2-methyl-2,7-diazaspiro[3.5]nonane-7-carbonyl)phenyl)-1H-pyrrolo[2,3-b]pyridin-3-yl)-2-methylphenyl)acrylamide]: the GI50 in assay [1] (CellTiter-Glo) and in assay [6] (CellTiter-Glo) was 1000 to 10000 nM each time. In addition, the pIC50 is at least 7.00 in assay [2], at least 7.00 in assay [3] (biochemical Lance assay), at least 7.00 in assay [4] and 6.30 to 7.00 in assay [5].
With `C=CC(=O)Nc1cc(-c2c(-c3ccc(N4CCN(C)CC4)cc3)[nH]c3nccc(Cl)c23)ccc1C` [drawing 711], the values for the GI50 in assay [1] and in assay [6] were 64 nM and 35 nM, respectively. Besides, in assay [3], the pIC50 is 8.30.
In the case of `C=CC(=O)Nc1cc(-c2c(-c3cccc(C(=O)N4CCN(C(C)=O)CC4)c3)[nH]c3nccc(Cl)c23)ccc1C` [Example 52, N-(5-(2-(3-(4-acetylpiperazine-1-carbonyl)phenyl)-4-chloro-1H-pyrrolo[2,3-b]pyridin-3-yl)-2-methylphenyl)acrylamide], the GI50 in assay [1] (CellTiter-Glo) and in assay [6] (CellTiter-Glo) was 1000 to 10000 nM each time. Further, the pIC50 in assay [2] is at least 7.00; in assay [3] (biochemical Lance assay) it was 6.30 to 7.00; in assay [4] it was 6.30 to 7.00; in assay [5], 6.30 to 7.00.
Regarding `C=CC(=O)Nc1cc(-c2c(-c3cccc(N4CCN(C(C)=O)CC4)c3)[nH]c3nccc(Cl)c23)ccc1C` [Example 35, N-(5-(2-(3-(4-acetylpiperazin-1-yl)phenyl)-4-chloro-1H-pyrrolo[2,3-b]pyridin-3-yl)-2-methylphenyl)acrylamide], the GI50 in assay [1] (CellTiter-Glo) and in assay [6] (CellTiter-Glo) was 500 to 1000 nM throughout. Also, the pIC50 is at least 7.00 in assay [2], 6.30 to 7.00 in assay [3] (biochemical Lance assay), at least 7.00 in assay [4] and at least 7.00 in assay [5].
`CCC(=O)Nc1cc(-c2c(-c3ccc(N4CCN(C)CC4)cc3)[nH]c3nccc(Cl)c23)ccc1C` [reference compound]: the GI50 in assay [1] stood at 754 nM; in assay [6], 1310 nM. In addition, the negative-log IC50 (pIC50) in assay [3] was 6.04.
Consider `C=CC(=O)Nc1cc(-c2c(-c3cccc(C(=O)NC4CC4)c3)[nH]c3nccc(Cl)c23)ccc1C` [Example 49, 3-(3-(3-acrylamido-4-methylphenyl)-4-chloro-1H-pyrrolo[2,3-b]pyridin-2-yl)-N-cyclopropylbenzamide], for which the GI50 in assay [1] (CellTiter-Glo) lay in the range of 500 to 1000 nM; in assay [6] (CellTiter-Glo), 1000 to 10000 nM. The pIC50 in assay [2] is at least 7.00; in assay [3] (biochemical Lance assay), 6.00 to 6.30; in assay [4], 6.30 to 7.00; in assay [5], 6.30 to 7.00.
In the case of `C=CC(=O)Nc1cc(-c2c(-c3ccc(F)c(C(=O)N4CCOCC4)c3)[nH]c3nccc(Cl)c23)ccc1C` [Example 33, N-(5-(4-chloro-2-(4-fluoro-3-(morpholine-4-carbonyl)phenyl)-1H-pyrrolo[2,3-b]pyridin-3-yl)-2-methylphenyl)acrylamide], the GI50 in assay [1] (CellTiter-Glo) and in assay [6] (CellTiter-Glo) was 1000 to 10000 nM throughout. Moreover, the pIC50 is 6.30 to 7.00 in assay [2], 5.00 to 6.00 in assay [3] (biochemical Lance assay), 6.00 to 6.30 in assay [4] and 6.30 to 7.00 in assay [5].
For the compound `C=CC(=O)Nc1cc(-c2c(-c3cccc(C(=O)N4CCC5(CCNC5=O)CC4)c3)[nH]c3nccc(Cl)c23)ccc1C` [Example 46, N-(5-(4-chloro-2-(3-(1-oxo-2,8-diazaspiro[4.5]decane-8-carbonyl)phenyl)-1H-pyrrolo[2,3-b]pyridin-3-yl)-2-methylphenyl)acrylamide], the GI50 in assay [1] (CellTiter-Glo) and in assay [6] (CellTiter-Glo) was 1000 to 10000 nM each time. The pIC50 in assay [2] is at least 7.00; in assay [3] (biochemical Lance assay) it was 5.00 to 6.00; in assay [4], 6.00 to 6.30; in assay [5] it was 4.00 to 6.00.
With `C=CC(=O)Nc1cc(-c2c(-c3cccc(C(=O)N4CCCCCC4)c3)[nH]c3nccc(Cl)c23)ccc1C` [Example 45, N-(5-(2-(3-(azepane-1-carbonyl)phenyl)-4-chloro-1H-pyrrolo[2,3-b]pyridin-3-yl)-2-methylphenyl)acrylamide], the GI50 in assay [1] (CellTiter-Glo) and in assay [6] (CellTiter-Glo) was 1000 to 10000 nM throughout. Moreover, the pIC50 in assay [2] is 6.30 to 7.00; in assay [3] (biochemical Lance assay), below 5.00; in assay [4], 4.00 to 6.00; in assay [5] it was 4.00 to 6.00.
Consider `C=CC(=O)Nc1cc(-c2c(-c3cccc(C(=O)N4CCN(C)CC4)c3)[nH]c3nccc(Cl)c23)ccc1C` [Example 44, N-(5-(4-chloro-2-(3-(4-methylpiperazine-1-carbonyl)phenyl)-1H-pyrrolo[2,3-b]pyridin-3-yl)-2-methylphenyl)acrylamide 2,2,2-trifluoroacetate], for which the GI50 in assay [1] (CellTiter-Glo) and in assay [6] (CellTiter-Glo) was 1000 to 10000 nM throughout. The negative-log IC50 (pIC50) in assay [2] is at least 7.00; in assay [3] (biochemical Lance assay), 6.30 to 7.00; in assay [4] it was 6.30 to 7.00; in assay [5] it was 6.30 to 7.00.
On to `C=CC(=O)Nc1cc(-c2c(-c3ccc(Cl)c(C(=O)N4CCOCC4)c3)[nH]c3nccc(Cl)c23)ccc1C` [Example 34, N-(5-(4-chloro-2-(4-chloro-3-(morpholine-4-carbonyl)phenyl)-1H-pyrrolo[2,3-b]pyridin-3-yl)-2-methylphenyl)acrylamide], for which the GI50 in assay [1] (CellTiter-Glo) and in assay [6] (CellTiter-Glo) was 1000 to 10000 nM throughout. Besides, the pIC50 in assay [2] was 6.30 to 7.00; in assay [3] (biochemical Lance assay), 5.00 to 6.00; in assay [4] it was 4.00 to 6.00; in assay [5] it was 6.00 to 6.30.
Consider `C=CC(=O)Nc1cc(-c2c(-c3cccc(C(=O)NCCCN(C)Cc4ccccc4)c3)[nH]c3nccc(Cl)c23)ccc1C` [Example 51, 3-(3-(3-acrylamido-4-methylphenyl)-4-chloro-1H-pyrrolo[2,3-b]pyridin-2-yl)-N-(3-(benzyl(methyl)amino)propyl)benzamide], for which the GI50 in assay [1] (CellTiter-Glo) and in assay [6] (CellTiter-Glo) was 500 to 1000 nM each time. The pIC50 was at least 7.00 in assay [2], 6.30 to 7.00 in assay [3] (biochemical Lance assay), at least 7.00 in assay [4] and at least 7.00 in assay [5].
